Results reported in patent publication EP0367124A1, “Penicillanic acid derivatives” (F. HOFFMANN-LA ROCHE AG, priority 1988, dated 1990).
Counter-ions that a name gives are not always drawn.

Assays:
Assay in all cases: In vitro MIC, Agar Well Diffusion Method
Type in all cases: cell-based
[1] = system: Staphylococcus aureus 1059B; conditions: Culture Staphylococcus aureus 1059B
[2] = system: Staphylococcus aureus 82 ATCC 6538P; conditions: Culture Staphylococcus aureus 82 ATCC 6538P; for MIC: ATCC6538P
Text: (§1) The in vitro activity of compounds of the present invention as measured by the Minimum Inhibitory Concentration (MIC) in micrograms per milliliter (mcg/ml), utilizing the Agar Well Diffusion Method, against a variety of Gram-negative microorganisms is illustrated in the following Table, in which the compounds evaluated were as follows: • Compound A: [2S-[2α,3α,5α,6β(R*)]]-6-[[[[(4-Ethyl-2,3-dioxo-1-piperazinyl)carbonyl]amino]phenylacetyl]amino]-3-methyl-3-[[(1-methyl-1H-tetrazole-5-yl)thio]methyl]-7-oxo-4-thia-1-azabicyclo[3.2.0]-heptane-2-carboxylic acid monosodium salt sesquihydrate • Compound B: [2S-(2α,3α,5α,6β)]-3-Methyl-3-[[(1-methyl-1H-tetrazol-5-yl)-thio]methyl-7-oxo-6-[(phenylacetyl)amino]-4-thia-1-azabicyclo[3.2.0] heptane-2-carboxylic acid monosodium salt • Compound C: [2S-[2α,3α,5α,6β(Z)]]-6-[[(2-Amino-4-thiazolyl)-(methoxyimino)-acetyl]amino]-3-methyl -3-[[(1-methyl-1H-tetrazol-5-yl)thio]methyl]-7-oxo-4-thia-1-azabicyclo[3.2.0]heptane-2-carboxylic acid monosodium salt • Compound D: [2S-(2α,3α,5α,6β)]-3-(Azidomethyl)-3-methyl-7-oxo-6-[(phenylacetyl)amino]-4-thia-1-azabicyclo-[3.2.0]heptane-2-carboxylic acid monosodium salt • Compound E: [2S-(2α,3α,5α,6β)]-1-[[2-carboxy-3-methyl-7-oxo-6-[(phenylacetyl)amino]-4-thia-1-azabicyclo-[3.2.0]hept-3-yl]methylpyridinium hydroxide inner salt • Compound F: [2S-(2α,3α,5α,6β)]-3-[[(2,5-Dihydro-6-hydroxy-2-methyl-5-oxo-1,2,4-triazine-3-yl)thio] -methyl]-3-methyl-7-oxo-6-[(phenylacetyl)amino]-4-thia-1-azabicyclo[3.2.0]heptane-2-carboxylic acid disodium salt • Compound G: [2S-(2α,3α,5α,6β)]-3-[(Acetylthio)-methyl]-3-methyl-7-oxo-6-[(phenylacetyl)amino]-4-thia-1-azabicyclo[3.2.0]heptane-2-carboxylic acid monosodium salt • Compound H: [2S-(2α,3α,5α,6β)]-3-[[[3,4-bis(Acetyloxy)benzoyl]oxy]methyl]-3-methyl-7-oxo-6-[(phenylacetyl)amino]-4-thia-1-azabicyclo[3.2.0]heptane-2-carboxylic acid monosodium salt

[3] = system: Proteus vulgaris 101N ATCC 6380; conditions: for MIC: ATCC6380, Culture Proteus vulgaris 101N ATCC 6380
Text: as §1

[4] = system: Streptococcus faecium ATCC 8043; conditions: for MIC: Enterococcus faecium, ATCC8043, Culture Streptococcus faecium ATCC 8043
Text: as §1

[5] = system: Bacillus subtilus 558 NRRL 558; conditions: for MIC: NRRL558, Culture Bacillus subtilus 558 NRRL 558
Text: as §1

[6] = system: Staphylococcus aureus 3647B; conditions: Culture Staphylococcus aureus 3647B
Text: as §1

[7] = system: Escherichia coli 2722B; conditions: Culture Escherichia coli 2722B
Text: as §1

[8] = system: Escherichia coli 3082B; conditions: Culture Escherichia coli 3082B
Text: as §1

[9] = system: Pseudomonas aeruginosa 56M; conditions: Culture Pseudomonas aeruginosa 56M
Text: as §1

[10] = system: Escherichia coli 1269B; conditions: Culture Escherichia coli 1269B
Text: as §1

[11] = system: Bacillus megaterium 164 ATCC 8011; conditions: for MIC: Priestia megaterium, ATCC8011, Culture Bacillus megaterium 164 ATCC 8011
Text: as §1

[12] = system: Escherichia coli 2721B; conditions: Culture Escherichia coli 2721B
Text: as §1

[13] = system: Proteus vulgaris 100; conditions: Culture Proteus vulgaris 100
Text: as §1

[14] = system: Pseudomonas maltophilia 28978 ATCC 17445; conditions: Stenotrophomonas maltophilia, ATCC17445, Culture Pseudomonas maltophilia 28978 ATCC 17445
Text: as §1

[15] = system: Pseudomonas aeruginosa 56 ATCC 8079; conditions: for MIC: ATCC8079, Culture Pseudomonas aeruginosa 56 ATCC 8079
Text: as §1

[16] = system: Escherichia coli 3081B; conditions: Culture Escherichia coli 3081B
Text: as §1

[17] = system: Micrococcus luteus PCI ATCC 9341; conditions: for MIC: ATCC9341, Culture Micrococcus luteus PCI ATCC 9341
Text: as §1

[18] = system: Staphylococcus aureus 3037B; conditions: Culture Staphylococcus aureus 3037B

Row | MIC [1] [mg/L] | MIC [2] [mg/L] | MIC [3] [mg/L] | MIC [4] [mg/L] | MIC [5] [mg/L] | MIC [6] [mg/L] | MIC [7] [mg/L] | MIC [8] [mg/L] | MIC [9] [mg/L] | MIC [10] [mg/L] | MIC [11] [mg/L] | MIC [12] [mg/L] | MIC [13] [mg/L] | MIC [14] [mg/L] | MIC [15] [mg/L] | MIC [16] [mg/L] | MIC [17] [mg/L] | MIC [18] [mg/L] | Structure (SMILES) | also measured
1 | 7.8 | 0.98 | 0.98 | 31.3 | 0.98 | 500 | 0.12 | 0.24 | 0.49 | 62.5 | 0.12 | 3.9 | 7.8 | 250 | 15.6 | 15.6 | 0.49 | 500 | CCN1CCN(C(=O)NC(C(=O)NC2C(=O)N3C2SC(C)(CSc2nnnn2C)C3C(=O)O)c2ccccc2)C(=O)C1=O (stereo not drawn) [Compound A, [2S-[2α,3α,5α,6β(R*)]]-6-[[[[(4-Ethyl-2,3-dioxo-1-piperazinyl)carbonyl]amino]phenylacetyl]amino]-3-methyl-3-[[(1-methyl-1H-tetrazole-5-yl)thio]methyl]-7-oxo-4-thia-1-azabicyclo[3.2.0]-heptane-2-carboxylic acid monosodium salt sesquihydrate] | –
2 | 3.9 | 0.03 | 15.6 | 7.8 | 0.03 | 125 | 31.3 | 31.3 | 0.98 | > 125 | 0.015 | 62.5 | > 125 | > 125 | 62.5 | > 125 | 0.03 | 125 | Cn1nnnc1SCC1(C)SC2C(NC(=O)Cc3ccccc3)C(=O)N2C1C(=O)O (stereo not drawn) [Compound B, [2S-(2α,3α,5α,6β)]-3-Methyl-3-[[(1-methyl-1H-tetrazol-5-yl)-thio]methyl-7-oxo-6-[(phenylacetyl)amino]-4-thia-1-azabicyclo[3.2.0]heptane-2-carboxylic acid monosodium salt] | –
3 | 3.9 | 0.49 | 31.3 | 125 | 0.49 | 250 | 1.95 | 1.95 | 0.98 | > 500 | 0.12 | 31.3 | 250 | > 500 | 62.5 | > 125 | 0.24 | 250 | CON=C(C(=O)NC1C(=O)N2C1SC(C)(CSc1nnnn1C)C2C(=O)O)c1csc(N)n1 (stereo not drawn) [Compound C, [2S-[2α,3α,5α,6β(Z)]]-6-[[(2-Amino-4-thiazolyl)-(methoxyimino)-acetyl]amino]-3-methyl-3-[[(1-methyl-1H-tetrazol-5-yl)thio]methyl]-7-oxo-4-thia-1-azabicyclo[3.2.0]heptane-2-carboxylic acid monosodium salt] | –
4 | 7.8 | 0.03 | 15.6 | 7.8 | 0.06 | 125 | 15.6 | 7.8 | 3.9 | > 125 | 0.12 | 62.5 | > 125 | > 125 | > 125 | 125 | 0.03 | 125 | CC1(CN=[N+]=[N-])SC2C(NC(=O)Cc3ccccc3)C(=O)N2C1C(=O)O (stereo not drawn) [Compound D, [2S-(2α,3α,5α,6β)]-3-(Azidomethyl)-3-methyl-7-oxo-6-[(phenylacetyl)amino]-4-thia-1-azabicyclo-[3.2.0]heptane-2-carboxylic acid monosodium salt] | –
5 | 15.6 | 0.49 | 125 | 125 | 0.24 | 500 | 31.3 | 31.3 | 3.9 | 500 | 0.49 | 31.3 | > 500 | – | 125 | 125 | 1.95 | 62.5 | CC1(C[n+]2ccccc2)SC2C(NC(=O)Cc3ccccc3)C(=O)N2C1C(=O)[O-] (stereo not drawn) [Compound E, [2S-(2α,3α,5α,6β)]-1-[[2-carboxy-3-methyl-7-oxo-6-[(phenylacetyl)amino]-4-thia-1-azabicyclo-[3.2.0]hept-3-yl]methylpyridinium hydroxideinner salt] | –
6 | – | – | – | – | – | – | – | – | – | – | – | – | – | – | – | – | – | – | Cn1nc([O-])c(=O)nc1SC[C@@]1(C)S[C@@H]2[C@H](NC(=O)Cc3ccccc3)C(=O)N2[C@H]1C(=O)[O-].[Na+].[Na+] [Compound F, [2S-(2α,3α,5α,6β)]-3-[[(2,5-Dihydro-6-hydroxy-2-methyl-5-oxo-1,2,4-triazine-3-yl)thio] -methyl]-3-methyl-7-oxo-6-[(phenylacetyl)amino]-4-thia-1-azabicyclo[3.2.0]heptane-2-carboxylic acid disodium salt] | In Vitro MIC [1]: 0.24 mg/L; In Vitro MIC [2]: 0.24 mg/L; In Vitro MIC ([3]; Culture Proteus vulgaris 101N ATCC 6380): 7.8 mg/L; In Vitro MIC ([4]; Culture Streptococcus faecium ATCC 8043): 62.5 mg/L; In Vitro MIC ([5]; Culture Bacillus subtilus 558 NRRL 558): 0.12 mg/L; In Vitro MIC [6]: 500 mg/L; In Vitro MIC [7]: 3.9 mg/L; In Vitro MIC [8]: 0.98 mg/L; In Vitro MIC [9]: 0.49 mg/L; In Vitro MIC [10]: 500 mg/L; In Vitro MIC ([11]; Culture Bacillus megaterium 164 ATCC 8011): 0.12 mg/L; In Vitro MIC [12]: 31.3 mg/L; In Vitro MIC [13]: 250 mg/L; In Vitro MIC ([15]; Culture Pseudomonas aeruginosa 56 ATCC 8079): 31.5 mg/L; In Vitro MIC [16]: 125 mg/L; In Vitro MIC ([17]; Culture Micrococcus luteus PCI ATCC 9341): 0.24 mg/L; In Vitro MIC [18]: 500 mg/L
7 | 0.98 | 0.03 | 31.3 | 0.98 | 0.03 | 250 | 7.8 | 1.95 | 0.98 | – | – | 62.5 | > 500 | > 500 | 125 | 500 | 0.06 | 250 | CC(=O)SCC1(C)SC2C(NC(=O)Cc3ccccc3)C(=O)N2C1C(=O)O (stereo not drawn) [Compound G, [2S-(2α,3α,5α,6β)]-3-[(Acetylthio)methyl]-3-methyl-7-oxo-6-[(phenylacetyl)amino]-4-thia-1-azabicyclo[3.2.0]heptane-2-carboxylic acid monosodium salt] | –
8 | 7.8 | 0.12 | 62.5 | 7.8 | 0.12 | 500 | 62.5 | 15.6 | 1.95 | – | – | 500 | > 500 | 31.5 | 31.5 | > 500 | 0.12 | 125 | CC(=O)Oc1ccc(C(=O)OCC2(C)SC3C(NC(=O)Cc4ccccc4)C(=O)N3C2C(=O)O)cc1OC(C)=O (stereo not drawn) [Compound H, [2S-(2α,3α,5α,6β)]-3-[[[3,4-bis(Acetyloxy)benzoyl]oxy]methyl]-3-methyl-7-oxo-6-[(phenylacetyl)amino]-4-thia-1-azabicyclo[3.2.0]heptane-2-carboxylic acid monosodium salt] | –
